According to patent US12116421B2, “Peptide-based Dopa containing adhesive gels” (KING ABDULLAH UNIVERSITY OF SCIENCE AND TECHNOLOGY, priority 2020, dated 2024):
Where a SMILES comes first, the peptide text is derived from it. [ ]: non-standard residue; d: D form. Dopa = N[C@@H](Cc1ccc(O)c(O)c1)C(=O)O; Cha = N[C@@H](CC1CCCCC1)C(=O)O

What was measured:
[1] = tested on: mouse myoblast cells (C2C12); assay: Cytocompatibility of peptide nanogels, 3D culture, MTT and live/dead staining; format: cell-based
Method: In one embodiment, cytocompatibility of the peptide nanogels was evaluated using mouse myoblast cells (C2C12). After 24 hours of incubation, cell proliferation was tested with DoIIZK, IIZDoK, IIZKDo, IIZ(KDo)2 and IIZ(KDo)3 at a concentration of 3 mg/mL to evaluate biocompatibility. The MTT (3-(4,5-dimethylthiazol-2-yl)-2,5-diphenyltetrazolium bromide) assay was used in order to quantify the number of viable cells. In one embodiment, a standard curve for a known number of cells was also plotted. In one embodiment, the test results were compared to the positive control 2D culture. A positive indication of cytocompatibility would be the survival of the cells following incubation with the peptides. For comparison, peptides DoIIZK, IIZDoK, IIZKDo, IIZ(KDo)2 and IIZ(KDo)3 were tested as part of the study. The cytocompatibilty of all peptides tested was evaluated by quantifying the survival cells by visualising the live/dead cells using calcein AM and Ethidium bromide staining.
Poli-D Lysine (PDL) was used for 2D control. The scalebar in FIG. 35 is 200 μm. Cytocompatibility of all peptides was evaluated by quantifying the survival cells by visualising the live/dead cells using calcein AM and Ethidium homodimer staining. The live cells are stained green by calcein AM, while the dead cells are stained red by Ethidium homodimer.
For mouse myoblast cells (C2C12) culture expansion, C2C12 cells were cultured either in a T175 or T75 culture flask in complete DMEM media (10% FBS and 1% P/S). The cells were placed in a humidified incubator at 37° C., with 95% air and 5% CO2. Then they were subcultured using trypsin at approximately 80% confluence. Fresh culture media was added every 48 h to each well, after removing the previous media.
For 3D culture of mouse myoblast cells in peptide hydrogels and cell viability assay, C2C12 cells were encapsulated in peptide hydrogels in a 96-well plate.^61 Briefly, peptide solutions DopaIIZK, IIZDopaK, IIZKDopa (3 mg/mL) were added to 40 μL/well. Mouse myoblast cells (30,000 cells/well) that were re-suspended in 2×PBS were then, mixed gently with the peptide solutions. The gelation time was 1-3 min for all 5 peptides. Subsequently, the culture medium was added to the wells.
The viability of 3D cultured cells was assessed using the LIVE/DEAD Viability/Cytotoxicity Kit (ThermoFisher®, USA)^11. Calcein acetoxymethyl ester (Calcein-AM) is used to detect viable cells and ethidium homodimer-I (EthD-I) is used to detect dead cells. Briefly, staining with 2 μM of Calcein-AM and 4 μM of EthD-1 is performed after washing with Dulbecco's phosphate-buffered saline (D-PBS). After 30 minutes incubation, the staining solution was discarded, and 1×D-PBS was added to each well before imaging. Stained cells were imaged with an inverted confocal microscope (Zeiss® LSM 710 Inverted Confocal Microscope, Germany) or ZEISS® fluorescent microscope.

[2] = Rheology of peptide hydrogels (storage and loss modulus); format: physicochemical; settings: 15 mg/mL in 1×PBS
Method: In one embodiment, the structural characteristics of these peptides also influence the rheological properties of the peptides, such as stiffness. The stiffness of the peptide hydrogels was assessed by rheology measurements. The five peptides, DoIIZK, IIZDoK, IIZKDo, IIZ(KDo)2 and IIZ(KDo)3 were dispersed in phosphate-buffered saline (1×PBS) to final concentrations of […]. Only DoIIZK and IIZKDo formed transparent hydrogels after preparation of gels onto rheology glass rings; the rest of the peptides formed grey/opaque hydrogels. This difference implies that the fibrils of peptides DoIIZK and IIZKDo had sufficient time to disperse and spread in solution before entrapping water to gel, while peptides IIZDoK, IIZ(KDo)2 and IIZ(KDo)3 gelled quickly upon fibril formation. Therefore, the rheological properties of the peptides were measured at the concentration of 15 mg/ml. […] The storage modulus and loss modulus reflect the stress response of the hydrogel in oscillatory shear. […]
Peptide hydrogels were prepared by weighing the appropriate peptide amount of the lyophilized peptide powder in 2 mL glass-vials. […] Rheological analysis mechanical properties of the formed gels were assessed by using the TA Ares-G2 Rheometer with an 8 mm titanium parallel-plate geometry. […] Time-sweep, frequency-sweep, and amplitude-sweep, were measured for each sample to explore the mechanical stiffness of the gels. […]

| Compound | biocompatibility with C2C12 cells [1] | cell viability / toxicity [1] | metabolic activity of cells versus 2D cultures [1] | time cells stay metabolically active in nanogel [1] | Storage and Loss moduli, times lower than DoIIZK and IIZKDo [2] | Storage modulus ([2]; 25° C.) |
| --- | --- | --- | --- | --- | --- | --- |
| CC[C@H](C)[C@H](NC(=O)[C@H](Cc1ccc(O)c(O)c1)NC(C)=O)C(=O)N[C@H](C(=O)N[C@@H](CC1CCCCC1)C(=O)N[C@@H](CCCCN)C(N)=O)[C@@H](C)CC [DoIIZK, Ac-Dopa-Ile-Ile-Cha-Lys-NH2] (Ac-[Dopa]II[Cha]K-NH2) | biocompatible | good viability | consistently comparable to 2D cultures | metabolically active for up to day 21 |  |  |
| CC[C@H](C)[C@H](NC(C)=O)C(=O)N[C@H](C(=O)N[C@@H](CC1CCCCC1)C(=O)N[C@@H](Cc1ccc(O)c(O)c1)C(=O)N[C@@H](CCCCN)C(N)=O)[C@@H](C)CC [IIZDoK, Ac-Ile-Ile-Cha-Dopa-Lys-NH2] (Ac-II[Cha][Dopa]K-NH2) | biocompatible | good viability | consistently comparable to 2D cultures | metabolically active for up to day 21 | roughly 10 times | 2-5 kPa |
| CC[C@H](C)[C@H](NC(C)=O)C(=O)N[C@H](C(=O)N[C@@H](CC1CCCCC1)C(=O)N[C@@H](CCCCN)C(=O)N[C@@H](Cc1ccc(O)c(O)c1)C(N)=O)[C@@H](C)CC [IIZKDo, Ac-Ile-Ile-Cha-Lys-Dopa-NH2] (Ac-II[Cha]K[Dopa]-NH2) | biocompatible | good viability | consistently comparable to 2D cultures | metabolically active for up to day 21 |  |  |
